Measurements from patent US20230139445A1, “BACTERIAL CELLS WITH IMPROVED TOLERANCE TO DIACIDS” (priority 2016, published 2023).
Read-outs that look alike come from different tables or passages of the source.

What was measured:
[1] = system: Escherichia coli K-12 MG1655; test: Growth of K-12 MG1655 in varying concentrations of fumaric, itaconic, malic and succinic acid, Growth Profiler; assay type: cell-based
Experimental: (§1) Five colonies from wild-type K-12 MG1655 and 10 individual colonies deriving from each population were inoculated into 300 μL M9+1% glucose in 96 well deepwell plates and incubated in a 300 rpm plate shaker at 37° C. The next day, cells were diluted 10× in M9+1% glucose and 30 μL was transferred into clear-bottomed 96 well half-deepwell plates (with rectangular wells) containing M9+1% glucose and M9+1% glucose+52.78 g/L glutaric acid or 55.56 g/L adipic acid, such that the final concentration of glutaric acid or adipic acid was 47.5 g/L or 50 g/L, respectively. In addition, cryogenic glycerol stocks of the overnight culture were saved in a 96 well plate format. Half deepwell plates were incubated at 37° C. with 225 rpm shaking in a Growth Profiler (Enzyscreen), with optical scans of the plates taken at 15 minute intervals. Green pixel values integrated over a 1 mm diameter circular area in each well were converted to OD600 values using a previously determined calibration between OD600 and green pixel values.
(§2) Additionally, each evolved isolate was tested for cross-tolerance toward other dicarboxylic acids of interest. […] All diacids tested were either the neutral sodium salts, or the free diacid was neutralized with sodium hydroxide to pH 7.0 for testing.

[2] = system: Escherichia coli K-12 MG1655 and evolved isolates; assay type: cell-based; conditions: 45 g/L fumaric acid
Experimental: as §1, §2

O=C(O)/C=C/C(=O)O [fumaric acid]
μ (mean) ([1]; growth rate of K-12 MG1655, 10 g/L diacid (sodium salt)): 0.662 h^1 | μ (mean) ([1]; growth rate of K-12 MG1655, 20 g/L diacid (sodium salt)): 0.615 h^1 | μ (mean) ([1]; growth rate of K-12 MG1655, 30 g/L diacid (sodium salt)): 0.482 h^1 | μ (mean) ([1]; growth rate of K-12 MG1655, 40 g/L diacid (sodium salt)): 0.285 h^1 | μ (mean) ([1]; growth rate of K-12 MG1655, 50 g/L diacid (sodium salt)): 0.116 h^1 | tlag (mean) ([1]; lag time of K-12 MG1655, 10 g/L diacid (sodium salt)): 5.8 h | tlag (mean) ([1]; lag time of K-12 MG1655, 20 g/L diacid (sodium salt)): 6.9 h | tlag (mean) ([1]; lag time of K-12 MG1655, 30 g/L diacid (sodium salt)): 9.5 h | tlag (mean) ([1]; lag time of K-12 MG1655, 40 g/L diacid (sodium salt)): 15.4 h | tlag (mean) ([1]; lag time of K-12 MG1655, 50 g/L diacid (sodium salt)): 30.2 h | growth rate μ (mean) ([2]; strain ADIP1-1): 0.347 h⁻¹ | lag time tlag (mean) ([2]; strain ADIP1-1): 10.2 h | growth rate μ (mean) ([2]; strain ADIP1-9): 0.328 h⁻¹ | lag time tlag (mean) ([2]; strain ADIP1-9): 9.8 h | growth rate μ (mean) ([2]; strain ADIP2-5): 0.358 h⁻¹ | lag time tlag (mean) ([2]; strain ADIP2-5): 11.4 h | growth rate μ (mean) ([2]; strain ADIP2-6): 0.380 h⁻¹ | lag time tlag (mean) ([2]; strain ADIP2-6): 11.0 h | growth rate μ (mean) ([2]; strain ADIP2-10): 0.353 h⁻¹ | lag time tlag (mean) ([2]; strain ADIP2-10): 11.0 h | growth rate μ (mean) ([2]; strain ADIP3-2): 0.327 h⁻¹ | lag time tlag (mean) ([2]; strain ADIP3-2): 9.4 h | growth rate μ (mean) ([2]; strain ADIP3-4): 0.324 h⁻¹ | lag time tlag (mean) ([2]; strain ADIP3-4): 9.7 h | growth rate μ (mean) ([2]; strain ADIP3-8): 0.343 h⁻¹ | lag time tlag (mean) ([2]; strain ADIP3-8): 10.1 h | growth rate μ (mean) ([2]; strain ADIP4-1): 0.264 h⁻¹ | lag time tlag (mean) ([2]; strain ADIP4-1): 11.9 h | growth rate μ (mean) ([2]; strain ADIP4-8): 0.254 h⁻¹ | lag time tlag (mean) ([2]; strain ADIP4-8): 12.4 h | growth rate μ (mean) ([2]; strain ADIP5-2): 0.280 h⁻¹ | lag time tlag (mean) ([2]; strain ADIP5-2): 10.6 h | growth rate μ (mean) ([2]; strain ADIP5-6): 0.444 h⁻¹ | lag time tlag (mean) ([2]; strain ADIP5-6): 9.0 h | growth rate μ (mean) ([2]; strain ADIP6-3): 0.275 h⁻¹ | lag time tlag (mean) ([2]; strain ADIP6-3): 11.3 h | growth rate μ (mean) ([2]; strain ADIP6-9): 0.250 h⁻¹ | lag time tlag (mean) ([2]; strain ADIP6-9): 12.3 h | growth rate μ (mean) ([2]; strain ADIP6-10): 0.308 h⁻¹ | lag time tlag (mean) ([2]; strain ADIP6-10): 10.0 h | growth rate μ (mean) ([2]; strain ADIP7-2): 0.312 h⁻¹ | lag time tlag (mean) ([2]; strain ADIP7-2): 10.1 h | growth rate μ (mean) ([2]; strain ADIP7-5): 0.326 h⁻¹ | lag time tlag (mean) ([2]; strain ADIP7-5): 10.0 h | growth rate μ (mean) ([2]; strain ADIP8-3): 0.202 h⁻¹ | lag time tlag (mean) ([2]; strain ADIP8-3): 14.4 h | growth rate μ (mean) ([2]; strain ADIP8-7): 0.188 h⁻¹ | lag time tlag (mean) ([2]; strain ADIP8-7): 16.1 h | growth rate μ (mean) ([2]; strain ADIP8-10): 0.221 h⁻¹ | lag time tlag (mean) ([2]; strain ADIP8-10): 14.3 h | growth rate μ (mean) ([2]; strain GLUT1-3): 0.293 h⁻¹ | lag time tlag (mean) ([2]; strain GLUT1-3): 13.3 h | growth rate μ (mean) ([2]; strain GLUT1-9): 0.274 h⁻¹ | lag time tlag (mean) ([2]; strain GLUT1-9): 14.9 h | growth rate μ (mean) ([2]; strain GLUT1-10): 0.289 h⁻¹ | lag time tlag (mean) ([2]; strain GLUT1-10): 18.9 h | growth rate μ (mean) ([2]; strain GLUT2-1): 0.277 h⁻¹ | lag time tlag (mean) ([2]; strain GLUT2-1): 13.5 h | growth rate μ (mean) ([2]; strain GLUT2-9): 0.267 h⁻¹ | lag time tlag (mean) ([2]; strain GLUT2-9): 12.2 h | growth rate μ (mean) ([2]; strain GLUT2-10): 0.312 h⁻¹ | lag time tlag (mean) ([2]; strain GLUT2-10): 12.3 h | growth rate μ (mean) ([2]; strain GLUT3-5): 0.263 h⁻¹ | lag time tlag (mean) ([2]; strain GLUT3-5): 16.6 h | growth rate μ (mean) ([2]; strain GLUT3-7): 0.264 h⁻¹ | lag time tlag (mean) ([2]; strain GLUT3-7): 16.2 h | growth rate μ (mean) ([2]; strain GLUT3-9): 0.305 h⁻¹ | lag time tlag (mean) ([2]; strain GLUT3-9): 24.3 h | growth rate μ (mean) ([2]; strain GLUT4-1): 0.295 h⁻¹ | lag time tlag (mean) ([2]; strain GLUT4-1): 14.6 h | growth rate μ (mean) ([2]; strain GLUT4-4): 0.287 h⁻¹ | lag time tlag (mean) ([2]; strain GLUT4-4): 15.3 h | growth rate μ (mean) ([2]; strain GLUT4-10): 0.274 h⁻¹ | lag time tlag (mean) ([2]; strain GLUT4-10): 16.3 h | growth rate μ (mean) ([2]; strain GLUT5-4): 0.386 h⁻¹ | lag time tlag (mean) ([2]; strain GLUT5-4): 14.1 h | growth rate μ (mean) ([2]; strain GLUT5-5): 0.375 h⁻¹ | lag time tlag (mean) ([2]; strain GLUT5-5): 15.1 h | growth rate μ (mean) ([2]; strain GLUT5-9): 0.370 h⁻¹ | lag time tlag (mean) ([2]; strain GLUT5-9): 14.9 h | growth rate μ (mean) ([2]; strain GLUT6-4): 0.281 h⁻¹ | lag time tlag (mean) ([2]; strain GLUT6-4): 13.8 h | growth rate μ (mean) ([2]; strain GLUT6-5): 0.279 h⁻¹ | lag time tlag (mean) ([2]; strain GLUT6-5): 13.2 h | growth rate μ (mean) ([2]; strain GLUT6-10): 0.277 h⁻¹ | lag time tlag (mean) ([2]; strain GLUT6-10): 14.2 h | growth rate μ (mean) ([2]; strain GLUT7-2): 0.304 h⁻¹ | lag time tlag (mean) ([2]; strain GLUT7-2): 14.6 h | growth rate μ (mean) ([2]; strain GLUT7-6): 0.261 h⁻¹ | lag time tlag (mean) ([2]; strain GLUT7-6): 19.5 h | growth rate μ (mean) ([2]; strain GLUT7-7): 0.193 h⁻¹ | lag time tlag (mean) ([2]; strain GLUT7-7): 22.0 h | growth rate μ (mean) ([2]; strain GLUT8-5): 0.247 h⁻¹ | lag time tlag (mean) ([2]; strain GLUT8-5): 14.4 h | growth rate μ (mean) ([2]; strain GLUT8-6): 0.272 h⁻¹ | lag time tlag (mean) ([2]; strain GLUT8-6): 43.5 h | growth rate μ (mean) ([2]; strain GLUT8-9): 0.196 h⁻¹ | lag time tlag (mean) ([2]; strain GLUT8-9): 54.3 h | growth rate μ (mean) ([2]; strain MG1655 (Table 26)): 0.216 h⁻¹ | lag time tlag (mean) ([2]; strain MG1655 (Table 26)): 16.6 h | growth rate μ (mean) ([2]; strain MG1655 (Table 27)): 0.212 h⁻¹ | lag time tlag (mean) ([2]; strain MG1655 (Table 27)): 15.5 h
